Entries after “also recorded” stand apart in the source; their conditions may differ. Where no end group is shown, it is not given here. [ ]: non-standard residue; d: D form. βAla = NCCC(=O)O
What was measured:
[1] = test system: Beagle dogs; assay: Adverse events after a high i.v. dose of NK2R agonist in beagle dogs; format: in vivo; conditions: 150 ug/kg intravenous, stated in Example 10 (present tense methods)
Method: General: Beagle dogs (6-11 kg, purpose-bred and experimentally naïve) are housed at an AAALAC approved facility in cages (1/cage) with access to water and food. A butterfly intravenous catheter is inserted into a vein (e.g. radial or saphenous). All animal activities are performed in compliance with USDA guidelines. Animals are monitored for 5 days prior to dosing to ensure adequate health.
Treatments and Dosing: Animals are administered a dose of an NK2R agonist that produces observed adverse events. […] Adverse events are commonly quantified by measuring the number of events and the duration of each event occurring during “1 minute time bins” after NK2R agonist administration to create a time histogram of events. When voiding has stopped, a NK2R antagonist is administered intravenously. Efficacy of the NK2R antagonist is obtained by measuring the reduction in the number and duration of adverse events.

[2] = test system: bladder of anesthetized acutely spinalized female rats; assay: Bladder contractility: isovolumetric bladder pressure recording in anesthetized acutely spinalized rats; format: in vivo, Sprague Dawley rats; conditions: for bladder pressure (peak pressure response): increasing i.v. doses, acutely spinalized anesthetized female rats; for effect of antagonist pre-administration on DTI-100 induced increase in bladder pressure: antagonist 1 mg/kg, DTI-100 10 μg/kg i.v., paired t-test, N=4
Method: (§1) General: In vivo studies were performed in anesthetized, acutely spinalized (T9-10 level) rats (N=37) or spinally intact (N=3) rats. Adult female Sprague Dawley rats (Charles River, N.C.; 250-300 g) were housed at an AAALAC approved facility in cages (3/cage) with free access to water and food in a colony room that was maintained on a 12 hr/12 hr light/dark cycle 1-2 weeks before the experiment. Rats were anesthetized with urethane (1.2-1.4 g/kg subcutaneous injection). Surgical procedures were then performed with the addition of isoflurane anesthesia (0.05-1.5% in O2) as the full anesthetic effect of urethane takes about 1-2 hrs.
A catheter filled with heparinized saline (50 unit/ml) was inserted into the carotid artery and connected to a pressure transducer for measurement of blood pressure and heart rate. A catheter was inserted into the jugular vein for intravenous (i.v.) administration of drugs. In order to transect the spinal cord, the skin and muscle on the dorsal side at the level of the lower thoracic vertebrae were incised, and the spinal cord was carefully exposed by a laminectomy and transected at the T8-T10 spinal level. Gelfoam was placed at the incision site and the muscle and skin overlying the vertebrae were closed with wound clips. The spinal cord was cut at least 60 min before starting the experimental protocol.
Bladder Contractility: For isovolumetric recordings of bladder pressure a saline-filled polyethylene tubing with a flared tip (PE 50®) catheter was inserted into the bladder and secured in place at the dome. This catheter was used to slowly infuse saline (0.2-0.3 ml/min by an infusion pump (PHD2000 infusion, Harvard Apparatus, Holliston, Mass.) to determine the bladder capacity. The bladder capacity was determined as the volume necessary to fill the bladder to the leak point pressure (i.e. volume required to produce voiding). The bladder was then emptied, the external urethra occluded and the bladder filled to 70% capacity. This method produced a stable baseline pressure in which drug induced changes in bladder contractility could be measured. Peak pressure responses, time to peak, and time to return to near baseline values (within 5 mmHg of baseline; i.e. duration of action) after vehicle and drug administration were measured.
Dosing: Responses to saline i.v. were given to ensure stable baseline pressures and lack of response to saline (vehicle control for DTI-100) at the start of each protocol and periodical throughout the experiment. DTI-100 was given in dose range of 0.01-100 μg/kg. The NK1R antagonist, Spantide I (solubilized in saline) and NK2R antagonist GR159897 (solubilized at 50 mM in DMSO and then diluted in saline) were given at a 1 mg/kg dose. Neurokinin A (NKA) and (betaAla8)NKA(4-10) were given at doses 1-100 μg/kg. Additional routes of drug administration explored included, intramuscular, subcutaneous, and sublingual. [Lys5,MeLeu9,Nle10]-NKA(4-10) (SEQ ID NO: 1) or “DTI-100”, Spantide I, GR159897, Neurokinin A, and (BetaAla8)NKA(4-10) were obtained from TOCRIS R&D SYSTEMS, Inc. (Minneapolis, Minn.).
Data analysis: Data were examined qualitatively and quantitatively. The mean, standard deviation and standard error of the mean were calculated using MICROSOFT EXCEL. One way ANOVA tests were performed with PRISM 5 for WINDOWS (Graphpad Software, Inc., La Jolla, Calif.) and unpaired and paired t-tests were performed in EXCEL. P<0.05 was considered as statistically significant.

[3] = test system: colorectum of anesthetized acutely spinalized female rats; assay: Colorectal contractility: balloon catheter colorectal pressure in anesthetized rats; format: in vivo, Sprague Dawley rats; conditions: antagonist 1 mg/kg i.v.; DTI-100 10 μg/kg given 5 min later
Method: as §1, with “hrs. […]” for “hrs.”
Colorectal Contractility: Colorectal pressures were measured via a latex balloon catheter (length 3-5 cm) inserted (˜4 cm) into the distal rectal/colon region. […] This allowed drug induced changes in colorectal pressure to be monitored. Parameters measured include peak colorectal pressure response, duration of time above baseline activity (in the 1st 5 min after drug administration), area under the curve (measured during the 1st 5 min after drug administration) and the number of contractile events after vehicle and drug administration. […]
Data analysis: Data were examined qualitatively and quantitatively. The mean, standard deviation and standard error of the mean were calculated using MICROSOFT EXCEL. […]

Row | Molecule | bladder pressure (peak pressure response) [2] | effect of antagonist pre-administration on DTI-100 induced increase in bladder pressure [2] | effect of antagonist pre-administration on DTI-100 induced increase in colorectal activity [3] | also measured
1 | CCCC[C@H](NC(=O)[C@H](CC(C)C)N(C)C(=O)CNC(=O)[C@@H](NC(=O)[C@H](Cc1ccccc1)NC(=O)[C@H](CCCCN)NC(=O)[C@@H](N)CC(=O)O)C(C)C)C(N)=O [DTI-100, [Lys5,MeLeu9,Nle10]-NKA(4-10)] | – | – | – | duration of adverse events [1]: approximately 15 minutes; adverse events observed ([1]; within minutes after voiding and defecation): retching, emesis, panting, and vocalization
2 | His-Lys-Thr-Asp-Ser-Phe-Val-Gly-Leu-Met-NH2 (HKTDSFVGLM-NH2) [NKA, neuropeptide neurokininA, peptide agonist for NK2R] | produce increases in bladder pressure | – | – | time to peak bladder pressure response ([2]; i.v., all doses studied): ≤ 60 s; bladder pressure ([2]; intramuscular, subcutaneous and sublingual injections, DTI-100 10-100 μg/kg, NKA 5-100 μg/kg): showed an increase in bladder pressure
3 | Spantide I | – | did not reduce the effect of DTI-100 on bladder pressure; also recorded: the same before (Before) and after (After) administration | did not reduce the effect of DTI-100 on colorectal activity | –
4 | COC1(C[S@@+]([O-])c2ccccc2)CCN(CCc2c[nH]c3ccc(F)cc23)CC1 [GR159897] | – | significantly blocked the bladder pressure increase to DTI-100 | significantly blocked the bladder pressure increase produced by DTI-100 | –
5 | Asp-Ser-Phe-Val-β-Ala-Leu-Met-NH2 (DSFV[βAla]LM-NH2) [(betaAla8)NKA(4-10), peptide agonist for NK2R] | produce increases in bladder pressure | – | – | –
